PMC5982655, “Interaction of the New Monofunctional Anticancer Agent Phenanthriplatin With Transporters for Organic Cations” (Frontiers in Chemistry, 2018)

Experiments:
[1] = molecular target: T1, mOCT2 (Mus musculus, UniProt O70577); experiment: Inhibition of ASP+ uptake in HEK 293 cells expressing mOCT2; assay type: cell-based, murine; conditions: HEK 293 mOCT2, 1 μM ASP+
T1 construct: expressed in transfected cells
T1 sequence (O70577 1-553): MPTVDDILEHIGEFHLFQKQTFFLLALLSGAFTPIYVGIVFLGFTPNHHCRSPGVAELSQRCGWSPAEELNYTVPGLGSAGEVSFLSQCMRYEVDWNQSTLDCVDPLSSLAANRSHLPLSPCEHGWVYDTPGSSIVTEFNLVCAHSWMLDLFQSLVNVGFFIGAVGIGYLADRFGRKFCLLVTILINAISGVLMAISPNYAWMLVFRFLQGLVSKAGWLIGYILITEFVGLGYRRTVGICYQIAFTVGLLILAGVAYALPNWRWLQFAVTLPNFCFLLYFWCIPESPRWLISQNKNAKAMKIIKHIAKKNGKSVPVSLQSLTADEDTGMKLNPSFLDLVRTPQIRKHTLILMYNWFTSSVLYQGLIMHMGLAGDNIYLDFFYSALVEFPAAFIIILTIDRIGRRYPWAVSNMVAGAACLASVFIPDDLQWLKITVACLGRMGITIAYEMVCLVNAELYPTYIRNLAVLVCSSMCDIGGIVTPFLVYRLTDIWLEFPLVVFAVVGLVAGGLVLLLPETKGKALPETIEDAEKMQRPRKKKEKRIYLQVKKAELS
Protocol: (§1) The interaction of phenanthriplatin with transporters for organic cations (OCT1-3, MATE1, and MATE2K) was investigated by measuring its effects on the uptake of the fluorescent organic cation 4-(4-dimethylamino)styryl-N-methylpyridinium (ASP^+). Microfluorometric measurements of ASP^+ uptake were performed with a fluorescence plate reader (Infinity 200, Tecan, Crailsheim, Germany; excitation at 465 nm, emission at 590 nm) as described previously for cultured HEK 293 cells (Wilde et al., [2009]). Before measurements, the culture medium in the wells of the 96 well microtiter plate containing HEK 293 cells was replaced by a HCO3- -free Ringer-like solution containing (in mM) NaCl 145, K2HPO4 1.6, KH2PO4 0.4, D-glucose 5, MgCl2 1, calcium gluconate 1.3, and pH adjusted to 7.4. Fluorescence was measured dynamically at 37°C in each well before and after ASP^+ addition to HCO3- -free Ringer-like solution, alone or together with increasing phenanthriplatin concentrations, and plotted versus time. ASP^+ (final concentration 1 or 10 μM for experiments with OCTs or MATEs, respectively) was added after the third sampling interval. Emission from the complete area of the well bottom was analyzed four times and averaged for each well. […] Background fluorescence was measured for each plate in wells with identical solutions containing no cells and subtracted from each well containing cells. […]

[2] = molecular target: T2, hOCT3 (Homo sapiens, UniProt O75751); experiment: Inhibition of ASP+ uptake in HEK 293 cells expressing hOCT3; assay type: cell-based; conditions: HEK 293 hOCT3, 1 μM ASP+
T2 construct: expressed in transfected cells; gift of H. Koepsell
T2 sequence (O75751 1-556): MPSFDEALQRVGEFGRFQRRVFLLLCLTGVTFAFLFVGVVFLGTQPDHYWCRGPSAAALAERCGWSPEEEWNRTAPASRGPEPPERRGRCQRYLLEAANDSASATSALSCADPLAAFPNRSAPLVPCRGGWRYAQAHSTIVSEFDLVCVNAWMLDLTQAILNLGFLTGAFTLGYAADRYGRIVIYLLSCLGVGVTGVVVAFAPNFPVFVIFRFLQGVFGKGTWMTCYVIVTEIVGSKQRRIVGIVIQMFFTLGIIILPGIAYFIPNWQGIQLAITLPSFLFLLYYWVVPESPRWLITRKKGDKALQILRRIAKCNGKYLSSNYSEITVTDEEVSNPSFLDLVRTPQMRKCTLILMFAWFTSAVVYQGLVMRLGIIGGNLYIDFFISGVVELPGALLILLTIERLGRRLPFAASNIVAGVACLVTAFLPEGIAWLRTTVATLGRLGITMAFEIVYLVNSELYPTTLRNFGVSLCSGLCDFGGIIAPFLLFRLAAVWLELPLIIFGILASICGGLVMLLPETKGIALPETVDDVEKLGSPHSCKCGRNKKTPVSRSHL
Protocol: as §1

[3] = molecular target: T3, hOCT2 (Homo sapiens, UniProt O15244); experiment: Inhibition of ASP+ uptake in HEK 293 cells expressing hOCT2; assay type: cell-based; conditions: HEK 293 hOCT2, 1 μM ASP+
T3 construct: expressed in transfected cells; gift of H. Koepsell
T3 sequence (O15244 1-555): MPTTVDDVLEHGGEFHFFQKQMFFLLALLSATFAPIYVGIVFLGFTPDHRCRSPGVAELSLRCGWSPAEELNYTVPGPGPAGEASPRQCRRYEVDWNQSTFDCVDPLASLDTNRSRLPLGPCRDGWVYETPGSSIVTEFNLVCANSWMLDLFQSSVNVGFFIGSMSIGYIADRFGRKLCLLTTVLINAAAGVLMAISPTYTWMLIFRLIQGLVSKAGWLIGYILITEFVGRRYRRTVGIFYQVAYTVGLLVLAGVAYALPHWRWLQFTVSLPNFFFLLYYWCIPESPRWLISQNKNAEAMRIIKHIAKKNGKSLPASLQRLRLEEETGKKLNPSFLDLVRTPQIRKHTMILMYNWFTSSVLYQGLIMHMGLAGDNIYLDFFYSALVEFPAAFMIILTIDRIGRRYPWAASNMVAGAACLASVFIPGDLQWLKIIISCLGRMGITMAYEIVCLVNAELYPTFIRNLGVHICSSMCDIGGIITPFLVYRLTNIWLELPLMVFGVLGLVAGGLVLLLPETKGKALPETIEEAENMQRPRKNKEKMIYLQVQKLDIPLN
Protocol: The interaction of phenanthriplatin with transporters for organic cations (OCT1-3, MATE1, and MATE2K) was investigated by measuring its effects on the uptake of the fluorescent organic cation 4-(4-dimethylamino)styryl-N-methylpyridinium (ASP^+). Microfluorometric measurements of ASP^+ uptake were performed with a fluorescence plate reader (Infinity 200, Tecan, Crailsheim, Germany; excitation at 465 nm, emission at 590 nm) as described previously for cultured HEK 293 cells (Wilde et al., [2009]). Before measurements, the culture medium in the wells of the 96 well microtiter plate containing HEK 293 cells was replaced by a HCO3- -free Ringer-like solution containing (in mM) NaCl 145, K2HPO4 1.6, KH2PO4 0.4, D-glucose 5, MgCl2 1, calcium gluconate 1.3, and pH adjusted to 7.4. Fluorescence was measured dynamically at 37°C in each well before and after ASP^+ addition to HCO3- -free Ringer-like solution, alone or together with increasing phenanthriplatin concentrations, and plotted versus time. ASP^+ (final concentration 1 or 10 μM for experiments with OCTs or MATEs, respectively) was added after the third sampling interval. Emission from the complete area of the well bottom was analyzed four times and averaged for each well. […] Background fluorescence was measured for each plate in wells with identical solutions containing no cells and subtracted from each well containing cells. Experiments were performed with cells from one passage of the same day with controls and test replicates in the same plate.
Data are presented as mean values ± SEM, with (n) referring to the number of wells. IC50 values defined as the concentration of platinum agent required to inhibit uptake of ASP^+ by 50% and EC50 values used to assess cell viability were obtained by sigmoidal concentration-response curve fitting using GraphPad Prism, Version 5.3 (GraphPad Software, San Diego, USA). […] For multiple comparisons, ANOVA with Bonferroni post-test was used. A P-value < 0.05 was considered statistically significant.

N.N.[Cl][Pt+].c1ccc2c(c1)cnc1ccccc12 [phenanthriplatin, cis-[Pt(NH3)2Cl(phenanthridine)]^+]
IC50 [1]: 2000 nM | logIC50 (logEC50) ± SEM for inhibition of ASP+ uptake [1]: −5.64 ± 0.05 | IC50 [2]: 21000 nM | logIC50 (logEC50) ± SEM for inhibition of ASP+ uptake [2]: −4.67 ± 0.07 | IC50 [3]: 2000 nM | logIC50 (logEC50) ± SEM for inhibition of ASP+ uptake [3]: −5.67 ± 0.10
